Test results from article PMC7542351, “Construction of a new T7 promoter compatible Escherichia coli Nissle 1917 strain for recombinant production of heme-dependent proteins” (Microbial Cell Factories, 2020).

Target: T1, Cph1 (Synechocystis sp. PCC 6803, UniProt Q55168)
T1 construct: His6 tag; ~80 kDa; pET-cph1; co-produced with HO1 and PcyA in E. coli; cell-free lysate
Test: red/far-red induced difference spectroscopy of holo-phytochrome
Format: biochemical
Conditions: cell-free lysate; pH 8.0, 25 °C; 630 nm / 730 nm light; PCB made in vivo by co-expressed HO1 and PcyA, and 40 µM PCB added; covalent

T1 sequence (Q55168 whole entry): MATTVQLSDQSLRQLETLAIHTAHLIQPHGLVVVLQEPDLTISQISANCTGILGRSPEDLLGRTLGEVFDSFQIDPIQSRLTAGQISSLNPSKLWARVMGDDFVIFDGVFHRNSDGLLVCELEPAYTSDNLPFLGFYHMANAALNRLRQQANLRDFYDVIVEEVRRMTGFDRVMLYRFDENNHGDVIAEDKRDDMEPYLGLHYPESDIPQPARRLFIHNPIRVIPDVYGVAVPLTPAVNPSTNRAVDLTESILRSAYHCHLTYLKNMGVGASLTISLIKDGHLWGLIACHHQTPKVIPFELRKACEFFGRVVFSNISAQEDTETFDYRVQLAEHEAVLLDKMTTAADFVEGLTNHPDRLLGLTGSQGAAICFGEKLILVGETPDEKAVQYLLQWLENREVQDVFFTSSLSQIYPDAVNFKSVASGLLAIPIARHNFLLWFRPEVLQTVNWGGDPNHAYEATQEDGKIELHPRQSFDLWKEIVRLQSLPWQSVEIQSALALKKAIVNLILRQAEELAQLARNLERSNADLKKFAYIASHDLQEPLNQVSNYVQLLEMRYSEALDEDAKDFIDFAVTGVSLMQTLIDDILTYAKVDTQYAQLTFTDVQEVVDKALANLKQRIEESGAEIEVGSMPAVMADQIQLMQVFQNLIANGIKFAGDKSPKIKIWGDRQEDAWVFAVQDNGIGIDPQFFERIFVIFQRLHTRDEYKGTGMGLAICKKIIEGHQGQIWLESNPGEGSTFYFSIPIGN

## CC=C1C(=Cc2[nH]c(C=C3N=C(C=C4NC(=O)C(CC)=C4C)C(C)=C3CCC(=O)O)c(CCC(=O)O)c2C)NC(=O)C1C (stereo not shown) [phycocyanobilin]
  red/far-red induced difference spectroscopy of holo-phytochrome: Comparison of difference spectra before and after incubation with PCB indicated a higher saturation
